# Calls of active or inactive are those of the source. The calls are words filed in the database; no cut-off is given here.
# Columns and labels:
# PC-12 [1] = experiment: Neuroprotective activity against RSL3-induced ferroptosis in rat PC-12 cells assessed as increase in survival rate at 10 uM preincubated with RSL3 stimulation followed by compound addition and measured after 24 hrs by CCK-8 assay (reference value: 54%); assay type: functional
# PC-12 [2] = experiment: Downregulation of NCOA4 level in RSL3-induced rat PC-12 cells at 10 uM preincubated with compound for 24 hrs followed by RSL3 stimulation and measured after 24 hrs by Western blotting analysis; assay type: functional, cell-based; conditions: time 48.0 hrs
# PC-12 [3] = experiment: Effect on SLC7A11 expression in RSL3-induced rat PC-12 cells at 10 uM preincubated with compound for 24 hrs followed by RSL3 stimulation and measured after 24 hrs by Western blotting analysis; assay type: functional, cell-based; conditions: time 48.0 hrs
# PC-12 [4] = experiment: Anti-ferroptosis activity against RSL3-induced ferroptosis in rat PC-12 cells assessed as increase in GSH level at 10 uM preincubated with compound for 24 hrs followed by RSL3 stimulation and measured after 24 hrs by […] method; assay type: functional, cell-based; conditions: time 48.0 hrs
# PC-12 [5] = experiment: Upregulation of ferritin level in RSL3-induced rat PC-12 cells at 10 uM preincubated with compound for 24 hrs followed by RSL3 stimulation and measured after 24 hrs by Western blotting analysis; assay type: functional, cell-based; conditions: time 48.0 hrs
# PC-12 [6] = experiment: Anti-ferroptosis activity against RSL3-induced ferroptosis in rat PC-12 cells assessed as decrease in lipid peroxidation at 10 uM by BODIPY-C11 581/591 staining based fluorescence microscopic analysis; assay type: functional, cell-based
# PC-12 [7] = experiment: Neuroprotective activity against RSL3-induced ferroptosis in rat PC-12 cells assessed as increase in survival rate at 10 uM preincubated with RSL3 stimulation followed by compound addition and measured after 24 hrs by CCK-8 assay; assay type: functional, cell-based
# PC-12 [8] = experiment: Upregulation of SLC7A11 expression in RSL3-induced rat PC-12 cells at 10 uM preincubated with compound for 24 hrs followed by RSL3 stimulation and measured after 24 hrs by Western blotting analysis; assay type: functional, cell-based; conditions: time 48.0 hrs
structure (smiles),measurement,setting,value
C/C(=C\Cc1ccc2c(c1)NC(=O)C2)C(=O)O,Activity,PC-12 [1],84%
same,Activity,PC-12 [2],Active
same,Activity,PC-12 [3],inactive
same,Activity,PC-12 [4],Active
same,Activity,PC-12 [5],Active
same,Activity,PC-12 [6],Active
CC(C)=CCc1ccc2c(c1)NC(=O)C2,Activity,PC-12 [1],77%
CC(=O)NCCc1ccc(O)cc1,Activity,PC-12 [1],83%
OCc1c[nH]c2ccccc12,Activity,PC-12 [7],Active
C/C=C(C)/C=C(\C)[C@H]1C(C)=C[C@]2(C)C[C@H](C)CC[C@H]2[C@@H]1C(=O)[C@H]1C(=O)NC(=O)[C@@H]1Cc1c[nH]c2ccccc12,Activity,PC-12 [8],Active
same,Activity,PC-12 [2],Active
same,Activity,PC-12 [7],Active
same,Activity,PC-12 [5],Active
same,Activity,PC-12 [6],Active

# From ChEMBL document CHEMBL6121020, “Neuroprotective Indole Alkaloids from the Soil-Derived Fungus Trichocladium sp. XZ8” (2025)
